Common to all, as to experiment: relative viability (nuclei count vs DMSO), 5 days (fraction); higher = more cells survive
Compound in assay [1]: COc1cc(Nc2ncc(F)c(Nc3ccc4c(n3)NC(=O)C(C)(C)O4)n2)cc(OC)c1OC [R406] + Nc1ncn([C@H]2C[C@H](O)[C@@H](CO)O2)c(=O)n1 [Decitabine] (partner 2 µM)
Summed up: (§1)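 The day after seeding in 1536-well plates, lung cancer cell lines were treated by pin tool with a single drug, or with a fixed anchor-drug dose together with five library-drug doses (not always all listed) in √10 steps. After 5 days, a combined fix-and-stain solution (final 0.05% Triton X-100, 1% formaldehyde, 1 ug/ml Hoechst) was added. Nuclei counted on 4× images gave relative viability as treated counts over vehicle counts, reported as the median of duplicate plates.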

Compound in assay [2]: COc1cc(Nc2ncc(F)c(Nc3ccc4c(n3)NC(=O)C(C)(C)O4)n2)cc(OC)c1OC [R406] + O=C(CCCCCCC(=O)Nc1ccccc1)NO [Vorinostat] (partner 1 µM)
In a few lines:
as §1

Compound in assay [3]: O=C(/C=C/c1cccnc1)NCCCCC1CCN(C(=O)c2ccccc2)CC1 [Daporinad] + Cc1nc(NC(=O)N2CCC[C@H]2C(N)=O)sc1-c1ccnc(C(C)(C)C(F)(F)F)c1 [Alpelisib] (partner 2 µM)
In a few lines: as §1

Compound in assay [4]: O=C(/C=C/c1cccnc1)NCCCCC1CCN(C(=O)c2ccccc2)CC1 [Daporinad] + CS(=O)(=O)CCNCc1ccc(-c2ccc3ncnc(Nc4ccc(OCc5cccc(F)c5)c(Cl)c4)c3c2)o1 [Lapatinib] (partner 2 µM)
Summed up: as §1

Take SW 1573: the relative viability in assay [1] (first compound 0.08 µM) was 0.398; in assay [1] (first compound 0.253 µM), 0.579; in assay [1] (first compound 0.8 µM) it was 0.604; in assay [1] (first compound 2.53 µM), 0.186; in assay [1] (first compound 8 µM), 0.172; in assay [2] (first compound 0.08 µM), 0.57. The relative viability in assay [2] (first compound 0.253 µM) was determined as 1.18; in assay [2] (first compound 0.8 µM) it was 0.947; in assay [2] (first compound 2.53 µM), 0.658; in assay [2] (first compound 8 µM) it was 0.305; in assay [3] (first compound 0.0005 µM) it was 0.615; in assay [3] (first compound 0.001581 µM), 0.788. The relative viability in assay [3] (first compound 0.005 µM) turned out to be 0.938; in assay [3] (first compound 0.01581 µM), 0.69; in assay [4] (first compound 0.0005 µM), 1.12; in assay [4] (first compound 0.001581 µM) it was 0.322; in assay [4] (first compound 0.005 µM), 1.2; in assay [4] (first compound 0.01581 µM), 0.833.

Values taken from the supplement of paper PMC10307832.
